In PMC12794188, “Maternal–Fetal Transfer and Toxicokinetics of 2,2′,5,5′-Tetrachlorobiphenyl, [^14C]-PCB52, Following Intratracheal Administration” (Chemical Research in Toxicology, 2025):

Assay: Toxicokinetics and tissue disposition of total [14C] radioactivity after a single intratracheal dose of [14C]-PCB52 (0.157 mg/kg) in pregnant rats at GD 11±1
Type: in vivo, Sprague–Dawley rats
Method: Female Sprague–Dawley rats (8 weeks old) weighing 237–269.7 g (mean = 247.5 g) (Envigo RMS, LLC, Indianapolis, IN) were used for this study. All animal experiments were performed following the protocols evaluated and approved by the University of Iowa Institutional Animal Care and Use Committee (approval number 3091097). After arrival, the animals were acclimated for 7 days. The animals were housed in a light and temperature-controlled environment with ad libitum access to food and water during quarantine and throughout the study. Timed pregnancy was achieved by harem mating. , Briefly, one male and two female rats were placed together in the evening and checked for vaginal plug the following day. If vaginal plug was present, the male was removed from the breeding cage, and the gestation day 0 (GD 0), 0-day post coitum was assigned. Pregnancies were confirmed by ultrasound scan at GD 9. The dams were exposed at GD 11 (±1 day) to capture the period of early organogenesis and hormonal function, which falls within week 3 of human embryonic development. ,− On the day of the experiment, pregnant rats were intratracheally administered an average of 40 μg (range, 35–45 μg) of [^14C]-PCB52 in 100 μL of exposure solution. Although the dose used in this study exceeded the tolerable daily intake (TDI) of PCBs for healthy individuals, which is 1.6 μg per day for an individual weighing 80 kg, the use of higher acute doses has been established in toxicological studies intended for risk assessment. The intratracheal instillation method was chosen for administering [^14C]-PCB52 to represent inhalation exposures, capture exhaled concentration, and efficiently utilize the limited availability of the cost-intensive radiolabeled PCB52. , Although inhalation exposure would better represent real-world exposures to airborne LC-PCBs, it would not allow us to accurately measure the amount of PCB52 exhaled into the air after exposure and is experimentally infeasible. […] All intratracheal instillations were done under light anesthesia, achieved using a 4% isoflurane concentration via a Fortec vaporizer (Cyprane, Keighley, UK). The animals recovered from anesthesia within 1 min. Subsequently, the animals were housed within a cylindrical glass chamber measuring 2 L in volume, equipped with glass drainage mechanisms to facilitate urine collection and a metallic screen to segregate urine from feces (as in Figure S1). Air was drawn from the chamber at 6.0 L/min through a cartridge containing the XAD-2 polymeric resin to capture any exhaled [^14C]-PCB52. For periods longer than 24 h postexposure, exposed dams were placed in a metabolic cage, which was fitted with a cartridge containing XAD-2 to capture exhaled [^14C]-PCB52 as in other end points.
Maternal blood, urine, and feces samples were collected immediately before and at 0.21, 1.67, 12, 24, 48, and 96 h after lung dosing. The exposed dams were euthanized using 4% isoflurane, followed by cervical dislocation and exsanguination via a cardiac puncture. Euthanasia was consistently performed during the light cycle. Dams’ fur was wiped and analyzed for radioactivity. Using the retro-orbital blood collection method, 0.5–1.5 mL ([…] of an exposed pregnant rat’s body weight) of blood sample was collected from each of the dams until the individual dams were necropsied for whole-body tissue harvesting. At the end of the exposure period, the chamber’s interior walls were rinsed separately with water and acetone/hexane (25 – 45 mL) and wiped to measure residues. From the collected whole blood samples, 100 μL were aliquoted into three vials each, and the remaining blood was allowed to clot at room temperature before being centrifuged to yield serum. The placentas, developing fetuses, and whole-body tissue samples were harvested immediately before exposure and at 0.21, 1.67, 12, 24, and 96 h postexposure. […]

[1] = AF (amniotic fluid)/MS (maternal serum)
[2] = Adipose tissue, 0.21 h post-exposure
[3] = Adipose tissue, 1.67 h post-exposure
[4] = Adipose tissue, 12 h post-exposure
[5] = Brown adipose, 0.21 h post-exposure
[6] = Brown adipose, 1.67 h post-exposure
[7] = Brown adipose, 12 h post-exposure
[8] = Brown adipose, 24 h post-exposure
[9] = Brown adipose, 96 h post-exposure
[10] = Esophagus, 0.21 h post-exposure
[11] = Esophagus, 1.67 h post-exposure
[12] = Mammary glands, 0.21 h post-exposure
[13] = Mammary glands, 1.67 h post-exposure
[14] = Mammary glands, 12 h post-exposure
[15] = Mammary glands, 24 h post-exposure
[16] = Mammary glands, 96 h post-exposure
[17] = Matter in duodenum, 0.21 h post-exposure
[18] = Matter in duodenum, 1.67 h post-exposure
[19] = Matter in duodenum, 12 h post-exposure
[20] = Matter in duodenum, 24 h post-exposure
[21] = Matter in duodenum, 96 h post-exposure
[22] = Matter in intestine, 0.21 h post-exposure
[23] = Matter in intestine, 1.67 h post-exposure
[24] = Matter in intestine, 12 h post-exposure
[25] = Matter in intestine, 24 h post-exposure
[26] = Matter in intestine, 96 h post-exposure
[27] = Matter in stomach, 0.21 h post-exposure
[28] = Matter in stomach, 1.67 h post-exposure
[29] = Matter in stomach, 12 h post-exposure
[30] = Matter in stomach, 24 h post-exposure
[31] = Matter in stomach, 96 h post-exposure

## Clc1ccc(Cl)c(-c2cc(Cl)ccc2Cl)c1 [PCB52, 2,2′,5,5′-Tetrachlorobiphenyl]
[1]
  AUC0‑∞ ratio: 0.050
  AUC0–96h ratio: 0.053
  C max ratio: 0.043
AF (amniotic fluid)/brain
  AUC0–96h ratio: 0.079
  C max ratio: 0.071
Adipose tissue
  AUC_%Extrap: 42.32%
  Terminal elimination half-life (t1/2): 72.85 h
[2]
  Conc. per mg wet tissue: 8.78 dpm/mg
  Percent tissue distribution: 10.92%
[3]
  Conc. per mg wet tissue: 19.77 dpm/mg
  Percent tissue distribution: 33.81%
[4]
  Conc. per mg wet tissue: 27.29 dpm/mg
  Percent tissue distribution: 26.32%
Adipose tissue, 24 h post-exposure
  Percent tissue distribution: 28.25%
Adrenal gland
  AUC_%Extrap: 74.40%
  Terminal elimination half-life (t1/2): 253.59 h
Bladder
  AUC_%Extrap: 40.50%
  Terminal elimination half-life (t1/2): 57.81 h
Brain, 0.21 h post-exposure
  Conc. per mg wet tissue: 1.44 dpm/mg
  Percent tissue distribution: 0.79%
Brain, 1.67 h post-exposure
  Conc. per mg wet tissue: 4.90 dpm/mg
  Percent tissue distribution: 0.52%
Brain, 12 h post-exposure
  Conc. per mg wet tissue: 0.67 dpm/mg
  Percent tissue distribution: 0.08%
Brain, 24 h post-exposure
  Conc. per mg wet tissue: 0.64 dpm/mg
  Percent tissue distribution: 0.07%
Brain, 96 h post-exposure
  Conc. per mg wet tissue: 0.67 dpm/mg
  Percent tissue distribution: 0.10%
Bronchi, 0.21 h post-exposure
  Conc. per mg wet tissue: 81.91 dpm/mg
  Percent tissue distribution: 0.66%
Bronchi, 1.67 h post-exposure
  Conc. per mg wet tissue: 33.51 dpm/mg
  Percent tissue distribution: 0.20%
Bronchi, 12 h post-exposure
  Conc. per mg wet tissue: 20.05 dpm/mg
  Percent tissue distribution: 0.10%
Bronchi, 24 h post-exposure
  Conc. per mg wet tissue: 18.87 dpm/mg
  Percent tissue distribution: 0.08%
Bronchi, 96 h post-exposure
  Conc. per mg wet tissue: 1.44 dpm/mg
  Percent tissue distribution: 0.01%
[5]
  Conc. per mg wet tissue: 40.87 dpm/mg
  Percent tissue distribution: 0.21%
[6]
  Conc. per mg wet tissue: 120.53 dpm/mg
  Percent tissue distribution: 0.87%
[7]
  Conc. per mg wet tissue: 27.78 dpm/mg
  Percent tissue distribution: 0.00%
[8]
  Conc. per mg wet tissue: 23.09 dpm/mg
  Percent tissue distribution: 0.18%
[9]
  Conc. per mg wet tissue: 4.17 dpm/mg
  Percent tissue distribution: 0.00%
Colon tissue
  AUC_%Extrap: 22.17%
  Terminal elimination half-life (t1/2): 40.46 h
Colon, 0.21 h post-exposure
  Conc. per mg wet tissue: 9.24 dpm/mg
  Percent tissue distribution: 0.35%
Colon, 1.67 h post-exposure
  Conc. per mg wet tissue: 5.24 dpm/mg
  Percent tissue distribution: 0.28%
Colon, 12 h post-exposure
  Conc. per mg wet tissue: 5.56 dpm/mg
  Percent tissue distribution: 0.41%
Colon, 24 h post-exposure
  Conc. per mg wet tissue: 9.18 dpm/mg
  Percent tissue distribution: 0.51%
Colon, 96 h post-exposure
  Conc. per mg wet tissue: 1.87 dpm/mg
  Percent tissue distribution: 0.16%
Duodenum
  AUC_%Extrap: 14.10%
  Terminal elimination half-life (t1/2): 34.84 h
  Tmax: ≤ 0.21 h
Duodenum, 0.21 h post-exposure
  Conc. per mg wet tissue: 21.37 dpm/mg
  Percent tissue distribution: 0.71%
Duodenum, 1.67 h post-exposure
  Conc. per mg wet tissue: 8.50 dpm/mg
  Percent tissue distribution: 0.25%
Duodenum, 12 h post-exposure
  Conc. per mg wet tissue: 3.28 dpm/mg
  Percent tissue distribution: 0.12%
Duodenum, 24 h post-exposure
  Conc. per mg wet tissue: 4.69 dpm/mg
  Percent tissue distribution: 0.17%
Duodenum, 96 h post-exposure
  Conc. per mg wet tissue: 0.83 dpm/mg
  Percent tissue distribution: 0.05%
Esophagus
  AUC_%Extrap: 11.71%
  Terminal elimination half-life (t1/2): 46.31 h
[10]
  Conc. per mg wet tissue: 72.35 dpm/mg
  Percent tissue distribution: 0.51%
[11]
  Conc. per mg wet tissue: 5.67 dpm/mg
  Percent tissue distribution: 0.06%
Esophagus, 12 h post-exposure
  Conc. per mg wet tissue: 1.09 dpm/mg
  Percent tissue distribution: 0.01%
Esophagus, 24 h post-exposure
  Conc. per mg wet tissue: 0.76 dpm/mg
  Percent tissue distribution: 0.01%
Esophagus, 96 h post-exposure
  Conc. per mg wet tissue: 0.25 dpm/mg
  Percent tissue distribution: 0.003%
Fetus
  AUC_%Extrap: 9.23%
  Terminal elimination half-life (t1/2): 34.78 h
  maternal serum exposure ratio: 0.27
Heart
  AUC_%Extrap: 6.21%
  Terminal elimination half-life (t1/2): 26.21 h
Heart, 96 h post-exposure
  Conc. per mg wet tissue: 0.61 dpm/mg
Kidney
  AUC_%Extrap: 13.09%
  Terminal elimination half-life (t1/2): 35.41 h
Liver
  AUC_%Extrap: 14.37%
  Terminal elimination half-life (t1/2): 42.13 h
Liver, 0.21 h post-exposure
  Conc. per mg wet tissue: 55.77 dpm/mg
  Percent tissue distribution: 17.36%
Liver, 1.67 h post-exposure
  Conc. per mg wet tissue: 23.78 dpm/mg
  Percent tissue distribution: 6.58%
Liver, 12 h post-exposure
  Conc. per mg wet tissue: 11.09 dpm/mg
  Percent tissue distribution: 1.88%
Liver, 24 h post-exposure
  Conc. per mg wet tissue: 8.22 dpm/mg
  Percent tissue distribution: 1.63%
Liver, 96 h post-exposure
  Conc. per mg wet tissue: 1.16 dpm/mg
  Percent tissue distribution: 0.41%
Lung
  AUC_%Extrap: 4.66%
  Terminal elimination half-life (t1/2): 22.05 h
Mammary glands
  AUC_%Extrap: 15.15%
  Terminal elimination half-life (t1/2): 34.16 h
[12]
  Conc. per mg wet tissue: 5.39 dpm/mg
  Percent tissue distribution: 0.28%
[13]
  Conc. per mg wet tissue: 2.46 dpm/mg
  Percent tissue distribution: 1.21%
[14]
  Conc. per mg wet tissue: 0.74 dpm/mg
  Percent tissue distribution: 1.18%
[15]
  Conc. per mg wet tissue: 1.55 dpm/mg
  Percent tissue distribution: 0.90%
[16]
  Conc. per mg wet tissue: 1.67 dpm/mg
  Percent tissue distribution: 0.18%
Matter in Colon
  AUC_%Extrap: 23.30%
  Terminal elimination half-life (t1/2): 40.00 h
Matter in amp colon
  AUC_%Extrap: 13.09%
  Terminal elimination half-life (t1/2): 30.46 h
Matter in duodenum
  AUC_%Extrap: 26.66%
  Terminal elimination half-life (t1/2): 34.63 h
[17]
  Conc. per mg wet tissue: 6.81 dpm/mg
  Percent tissue distribution: 0.44%
[18]
  Conc. per mg wet tissue: 51.01 dpm/mg
  Percent tissue distribution: 0.57%
[19]
  Conc. per mg wet tissue: 14.38 dpm/mg
  Percent tissue distribution: 0.16%
[20]
  Conc. per mg wet tissue: 16.72 dpm/mg
  Percent tissue distribution: 0.19%
[21]
  Conc. per mg wet tissue: 0.68 dpm/mg
  Percent tissue distribution: 0.33%
Matter in intestine
  AUC_%Extrap: 2.18%
  Terminal elimination half-life (t1/2): 17.41 h
[22]
  Conc. per mg wet tissue: 10.76 dpm/mg
  Percent tissue distribution: 0.70%
[23]
  Conc. per mg wet tissue: 1.07 dpm/mg
  Percent tissue distribution: 4.97%
[24]
  Conc. per mg wet tissue: 0.75 dpm/mg
  Percent tissue distribution: 1.53%
[25]
  Conc. per mg wet tissue: 13.86 dpm/mg
  Percent tissue distribution: 2.58%
[26]
  Conc. per mg wet tissue: 0.41 dpm/mg
  Percent tissue distribution: 0.02%
Matter in stomach
  AUC_%Extrap: 4.07%
  Terminal elimination half-life (t1/2): 16.50 h
[27]
  Conc. per mg wet tissue: 28.20 dpm/mg
  Percent tissue distribution: 0.47%
[28]
  Conc. per mg wet tissue: 5.71 dpm/mg
  Percent tissue distribution: 0.06%
[29]
  Conc. per mg wet tissue: 1.71 dpm/mg
  Percent tissue distribution: 0.09%
[30]
  Conc. per mg wet tissue: 1.57 dpm/mg
  Percent tissue distribution: 1.52%
[31]
  Conc. per mg wet tissue: 0.18 dpm/mg
  Percent tissue distribution: 0.04%
Muscle
  AUC_%Extrap: 96.68%
  Terminal elimination half-life (t1/2): 1231.42 h
Muscle, 0.21 h post-exposure
  Conc. per mg wet tissue: 1.58 dpm/mg
  Percent tissue distribution: 28.65%
Muscle, 96 h post-exposure
  Conc. per mg wet tissue: 1.58 dpm/mg
Ovary
  AUC_%Extrap: 25.93%
  Terminal elimination half-life (t1/2): 46.53 h
Ovary, 0.21 h post-exposure
  Conc. per mg wet tissue: 19.85 dpm/mg
